Experimental data as given in article PMC10408569, “Recruitment of hexahydroquinoline as anticancer scaffold targeting inhibition of wild and mutants EGFR (EGFR^WT, EGFR^T790M, and EGFR^L858R)” (Journal of Enzyme Inhibition and Medicinal Chemistry, 2023).

Assays:
[1] = system: HCT-116; assay: NCI-60 anticancer screening (SRB); type: cell-based; settings: Homo sapiens; HCT-116, colon cancer; one dose 10 μM; read-out: Growth Inhibition Percentage (GI %)
[2] = system: SF-295; assay: NCI-60 anticancer screening (SRB); type: cell-based; settings: Homo sapiens; SF-295, CNS cancer; one dose 10 μM; read-out: Growth Inhibition Percentage (GI %)
[3] = system: DU-145; assay: NCI-60 anticancer screening (SRB); type: cell-based; settings: Homo sapiens; DU-145, prostate cancer; one dose 10 μM; read-out: Growth Inhibition Percentage (GI %)
[4] = system: HT29; assay: NCI-60 anticancer screening (SRB); type: cell-based; settings: Homo sapiens, HT-29; HT29, colon cancer; one dose 10 μM; read-out: Growth Inhibition Percentage (GI %)
[5] = system: HOP-62; assay: NCI-60 anticancer screening (SRB); type: cell-based; settings: Homo sapiens; HOP-62, NSC lung cancer; one dose 10 μM; read-out: Growth Inhibition Percentage (GI %)
[6] = system: SK-MEL-2; assay: NCI-60 anticancer screening (SRB); type: cell-based; settings: Homo sapiens; SK-MEL-2, melanoma; one dose 10 μM; read-out: Growth Inhibition Percentage (GI %)
[7] = system: SNB-75; assay: NCI-60 anticancer screening (SRB); type: cell-based; settings: Homo sapiens; SNB-75, CNS cancer; one dose 10 μM; read-out: Growth Inhibition Percentage (GI %)
[8] = system: NCI-H460; assay: NCI-60 anticancer screening (SRB); type: cell-based; settings: Homo sapiens; NCI-H460, NSC lung cancer; one dose 10 μM; read-out: Growth Inhibition Percentage (GI %)
[9] = system: 786-0; assay: NCI-60 anticancer screening (SRB); type: cell-based; settings: Homo sapiens; 786-0, renal cancer; one dose 10 μM; read-out: Growth Inhibition Percentage (GI %)
[10] = system: IGROV1; assay: NCI-60 anticancer screening (SRB); type: cell-based; settings: Homo sapiens, IGROV-1; IGROV1, ovarian cancer; one dose 10 μM; read-out: Growth Inhibition Percentage (GI %)
[11] = system: LOX IMVI; assay: NCI-60 anticancer screening (SRB); type: cell-based; settings: Homo sapiens, melanoma, one dose 10 μM, read-out: Growth Inhibition Percentage (GI %)
[12] = system: A498; assay: NCI-60 anticancer screening (SRB); type: cell-based; settings: Homo sapiens; A498, renal cancer; one dose 10 μM; read-out: Growth Inhibition Percentage (GI %)
[13] = system: HOP-92; assay: NCI-60 anticancer screening (SRB); type: cell-based; settings: Homo sapiens; HOP-92, NSC lung cancer; one dose 10 μM; read-out: Growth Inhibition Percentage (GI %)
[14] = system: NCI-H522; assay: NCI-60 anticancer screening (SRB); type: cell-based; settings: Homo sapiens; NCI-H522, NSC lung cancer; one dose 10 μM; read-out: Growth Inhibition Percentage (GI %)
[15] = system: SR; assay: NCI-60 anticancer screening (SRB); type: cell-based; settings: Homo sapiens, leukemia, one dose 10 μM, read-out: Growth Inhibition Percentage (GI %)
[16] = system: SN 12C; assay: NCI-60 anticancer screening (SRB); type: cell-based; settings: Homo sapiens, SN12C; SN 12C, renal cancer; one dose 10 μM; read-out: Growth Inhibition Percentage (GI %)
[17] = system: ACHN; assay: NCI-60 anticancer screening (SRB); type: cell-based; settings: Homo sapiens, renal cancer, one dose 10 μM, read-out: Growth Inhibition Percentage (GI %)
[18] = system: K-562; assay: NCI-60 anticancer screening (SRB); type: cell-based; settings: Homo sapiens, K562; K-562, leukemia; one dose 10 μM; read-out: Growth Inhibition Percentage (GI %)
[19] = system: SF-539; assay: NCI-60 anticancer screening (SRB); type: cell-based; settings: Homo sapiens; SF-539, CNS cancer; one dose 10 μM; read-out: Growth Inhibition Percentage (GI %)
[20] = system: NCI-H226; assay: NCI-60 anticancer screening (SRB); type: cell-based; settings: Homo sapiens; NCI-H226, NSC lung cancer; one dose 10 μM; read-out: Growth Inhibition Percentage (GI %)
[21] = system: SK-MEL-5; assay: NCI-60 anticancer screening (SRB); type: cell-based; settings: Homo sapiens; SK-MEL-5, melanoma; one dose 10 μM; read-out: Growth Inhibition Percentage (GI %)
[22] = system: SF-268; assay: NCI-60 anticancer screening (SRB); type: cell-based; settings: Homo sapiens; SF-268, CNS cancer; one dose 10 μM; read-out: Growth Inhibition Percentage (GI %)
[23] = system: OVCAR-5; assay: NCI-60 anticancer screening (SRB); type: cell-based; settings: Homo sapiens; OVCAR-5, ovarian cancer; one dose 10 μM; read-out: Growth Inhibition Percentage (GI %)
[24] = system: T-47D; assay: NCI-60 anticancer screening (SRB); type: cell-based; settings: Homo sapiens, T47D, breast cancer, one dose 10 μM, read-out: Growth Inhibition Percentage (GI %)
[25] = system: CAKI-1; assay: NCI-60 anticancer screening (SRB); type: cell-based; settings: Homo sapiens; CAKI-1, renal cancer; one dose 10 μM; read-out: Growth Inhibition Percentage (GI %)
[26] = system: SNB-19; assay: NCI-60 anticancer screening (SRB); type: cell-based; settings: Homo sapiens; SNB-19, CNS cancer; one dose 10 μM; read-out: Growth Inhibition Percentage (GI %)
[27] = system: U251; assay: NCI-60 anticancer screening (SRB); type: cell-based; settings: Homo sapiens, U-251; U251, CNS cancer; one dose 10 μM; read-out: Growth Inhibition Percentage (GI %)
[28] = system: RPMI-8226; assay: NCI-60 anticancer screening (SRB); type: cell-based; settings: Homo sapiens; RPMI-8226, leukemia; one dose 10 μM; read-out: Growth Inhibition Percentage (GI %)
[29] = system: UACC-257; assay: NCI-60 anticancer screening (SRB); type: cell-based; settings: Homo sapiens; UACC-257, melanoma; one dose 10 μM; read-out: Growth Inhibition Percentage (GI %)
[30] = system: EKVX; assay: NCI-60 anticancer screening (SRB); type: cell-based; settings: Homo sapiens, NSC lung cancer, one dose 10 μM, read-out: Growth Inhibition Percentage (GI %)
[31] = system: M14; assay: NCI-60 anticancer screening (SRB); type: cell-based; settings: Homo sapiens; M14, melanoma; one dose 10 μM; read-out: Growth Inhibition Percentage (GI %)
[32] = system: MALME-3M; assay: NCI-60 anticancer screening (SRB); type: cell-based; settings: Homo sapiens, melanoma, one dose 10 μM, read-out: Growth Inhibition Percentage (GI %)

SMILES	inhibition at 10 µM [1] [%]	inhibition at 10 µM [2] [%]	inhibition at 10 µM [3] [%]	inhibition at 10 µM [4] [%]	inhibition at 10 µM [5] [%]	inhibition at 10 µM [6] [%]	inhibition at 10 µM [7] [%]	inhibition at 10 µM [8] [%]	inhibition at 10 µM [9] [%]	inhibition at 10 µM [10] [%]	inhibition at 10 µM [11] [%]	inhibition at 10 µM [12] [%]	inhibition at 10 µM [13] [%]	inhibition at 10 µM [14] [%]	inhibition at 10 µM [15] [%]	inhibition at 10 µM [16] [%]	inhibition at 10 µM [17] [%]	inhibition at 10 µM [18] [%]	inhibition at 10 µM [20] [%]	inhibition at 10 µM [21] [%]	also measured
CCOC(=O)C1=C(N)N(c2ccc(Cl)cc2)C2=C(C(=O)CC(C)(C)C2)C1c1cccc(Cl)c1Cl (racemic) [10b, (±)-Ethyl 2-amino-1–(4-chorophenyl)-4–(2,3-dichlorophenyl)-7,7-dimethyl-5-oxo-1-phenyl-1,4,5,6,7,8-hexahydroquinoline-3-carboxylate]	71	26	18	32	16	20	22	53	22	< 10	< 10	< 10	30	30	66	35	54	71	42	40	inhibition at 10 µM [19]: 22%; inhibition at 10 µM [22]: 22%; inhibition at 10 µM [23]: < 10%; inhibition at 10 µM [24]: 41%; inhibition at 10 µM [25]: 53%; melting point: 250 to 252 °C; inhibition at 10 µM [26]: 22%; inhibition at 10 µM [27]: 22%; inhibition at 10 µM [28]: 73%; inhibition at 10 µM [29]: 44%; inhibition at 10 µM [30]: 58%; inhibition at 10 µM [31]: 16%; inhibition at 10 µM [32]: 20%
CCOC(=O)C1=C(N)N(c2ccccc2)C2=C(C(=O)CC(C)(C)C2)C1c1ccccc1Cl (racemic) [6a, (±)-Ethyl 2-amino-4–(2-chlorophenyl)-7,7-dimethyl-5-oxo-1-phenyl-1,4,5,6,7,8-hexahydroquinoline-3-carboxylate]	59	25	12	45	< 10	43	34	40	21	< 10	15	< 10	32	43	68	25	31	59	24	40	inhibition at 10 µM [19]: < 10%; inhibition at 10 µM [22]: 20%; inhibition at 10 µM [23]: 14%; inhibition at 10 µM [24]: 48%; inhibition at 10 µM [25]: 54%; melting point: 168 to 170 °C; inhibition at 10 µM [26]: 30%; inhibition at 10 µM [27]: 21%; inhibition at 10 µM [28]: 78%; inhibition at 10 µM [29]: 28%; inhibition at 10 µM [30]: 26%; inhibition at 10 µM [31]: 50%; inhibition at 10 µM [32]: 11%
CCOC(=O)C1=C(N)N(c2ccc(C)cc2)C2=C(C(=O)CC(C)(C)C2)C1c1ccc([N+](=O)[O-])cc1 (racemic) [8j, (±)-Ethyl 2-amino-7,7-dimethyl-1–(4-methylphenyl)-4–(4-nitrophenyl)-5-oxo-1,4,5,6,7,8-hexahydroquinoline-3-carboxylate]	< 10	< 10	< 10	< 10	< 10	< 10	< 10	< 10	< 10	< 10	< 10	< 10	< 10	< 10	< 10	< 10	< 10	< 10	< 10	< 10	inhibition at 10 µM [22]: < 10%; inhibition at 10 µM [23]: < 10%; inhibition at 10 µM [24]: < 10%; inhibition at 10 µM [25]: < 10%; melting point: 270 to 272 °C; inhibition at 10 µM [26]: < 10%; inhibition at 10 µM [27]: < 10%; inhibition at 10 µM [28]: < 10%; inhibition at 10 µM [29]: < 10%; inhibition at 10 µM [30]: < 10%; inhibition at 10 µM [31]: < 10%; inhibition at 10 µM [32]: < 10%
